Measurements reported in paper PMC7782499, “Progerinin, an optimized progerin-lamin A binding inhibitor, ameliorates premature senescence phenotypes of Hutchinson-Gilford progeria syndrome” (Communications Biology, 2021).

Test system: Beagle dogs
Test: Maximum tolerated dose study in Beagle dogs, escalated-dose oral administration
Assay type: in vivo
Design: HGB: unit not given here
Details: for A/G / ALB / ALP / ALT / AST / BASO / BUN / CHO / CRE / EOS / GLU / HCT / HGB / K+ / LYM / MCH / MCHC / MCV / MONO / NEU / Na+ / PLT / PRO / RBC / Reti / T-BIL / TG / WBC: ~24 h post dose
From the text: The protocol and procedures involving the care and use of animals in this study was reviewed and approved by IACUC of QuBEST BIO prior to conduct (Approval no.: QBSIACUC-A18142). During the study, the care and use of animals will be conducted in accordance with all applicable guidelines of Animal Welfare Act. Non-naive one male and one female Beagle dogs (~16–24 months old, original supplier: ORIENTBIO Co., Ltd, Korea) were selected from the stock colony and assigned for the study. The route of administration was the oral (by gavage) route, which is the anticipated clinical route of exposure. Test article formulations were administered once via oral gavage. The day of 1st dosing was designated as Day 1. Each dose was administered via a syringe attached with 12-french feeding tube. A dose volume of 5 ml/kg was used and individual dose volumes were based on the most recent body weight. Each dose was followed by a distilled water of 5 ml. Each animal was observed twice daily (a.m. and p.m.) for mortality and moribundity; findings were recorded as they were observed. Cage side observations were made for each animal once daily; abnormal findings were recorded. […] Body weights were measured prior to each dosing. […] Prior to dosing and ~24 h post each dose, blood was collected as the same method and frequency with hematology analysis using no anticoagulant and then serum was separated by centrifugation and stored at freezer until analyze (AU 400, Olympus, Japan; […] 744 Na^+/K^+/[…] Analyzer, SIEMENS, Germany). In terminal procedures, all surviving animals were returned to the stock colony without necropsy. Toxicity studies were performed by QuBEST BIO Co., Ltd (Yongin, Korea).
The objective of this study was to determine the maximum tolerated dose (MTD) of SLC-D011 following dose escalation by oral gavage to Beagle dogs.
The study group was detailed in Text Table 1.
Text Table 1. Study Group
Dose Level Dose Conc. No. of Animals†
Group Treatment (mg/kg) (mg/mL)
†: Animals were re-used for each dose with at least 4-day wash-out period.
The following parameters were evaluated in this study: mortality, clinical signs, body weights and clinical pathology parameters (hematology and serum biochemistry).
Mortality and Clinical Observations
All animals survived until end of the study. Test article-related clinical observations were limited to oily soft stool in the 100 mg/kg/day group animals and vomitus (frothy) and soft sto ol in the 400 […]
Clinical Pathology Parameters (Hematology and Serum Chemistry) […]
the 100 and 400 mg/kg group animals on approximately 24 hours post each dose, compared to pre […]
Based on the results of this study, the maximum tolerated dose (MTD) of SLC-D011 was considered to […]
Test article formulations were administered once via oral gavage. The day of 1st dosing was designated […]
Each dose was administered via a syringe attached with 12-french feeding tube. A dose volume of 5 mL/kg was used and individual dose volumes were based on the most recent body weight. Each dose was followed by a distilled water of 5 mL. […]
Each animal was observed twice daily (a.m. and p.m.) for mortality and moribundity; findings were recorded as they were observed. Cage side observations were made for each animal once daily; abnormal findings were recorded. Detailed observations were made for each animal once prior to treatment; abnormal findings (ranked/graded, if appropriate) or an indication the animal appears […]
Body weights were measured prior to each dosing. […]
Prior to each dosing and approximately 24 hours post each dose, blood samples for hematology examination were collected from the via cephalic vein into tubes with K2EDTA anticoagulant and […]
Parameters Unit Measurement Method
ⓐ RBC (Red blood cell count) 106/μL Electric Impedance […]
ⓒ HGB (Hemoglobin conc.) g/dL Cyanmethemoglobin […]

CC1(C)Oc2cc3oc(=O)ccc3cc2C[C@@H]1OC/C=C/c1ccccc1 [SLC-D011]
Body weights (100 mg/kg/day group animals by Day 4): lower body weights were temporarily noted
Hematology and serum chemistry parameters (in words) (100 and 400 mg/kg, ~24 hours post each dose vs pre dose): no toxicologically significant changes
A/G (female F1, 100 mg/kg): 0.72
ALB (female F1, 100 mg/kg): 2.62 g/dL
ALP (female F1, 100 mg/kg): 106.7 U/L
ALT (female F1, 100 mg/kg): 34.3 U/L
AST (female F1, 100 mg/kg): 41.7 U/L
BASO (female F1, 100 mg/kg): 0.6%
BUN (female F1, 100 mg/kg): 17.7 mg/dL
CHO (female F1, 100 mg/kg): 189.4 mg/dL
CRE (female F1, 100 mg/kg): 0.82 mg/dL
EOS (female F1, 100 mg/kg): 1.2%
GLU (female F1, 100 mg/kg): 96.4 mg/dL
HCT (female F1, 100 mg/kg): 47.8%
HGB (female F1, 100 mg/kg): 15.6
K+ (female F1, 100 mg/kg): 4.5 mmol/L
LYM (female F1, 100 mg/kg): 39.9%
MCH (female F1, 100 mg/kg): 22.5 pg
MCHC (female F1, 100 mg/kg): 32.6 g/dL
MCV (female F1, 100 mg/kg): 68.9 fL
MONO (female F1, 100 mg/kg): 5.6%
NEU (female F1, 100 mg/kg): 52.3%
Na+ (female F1, 100 mg/kg): 141 mmol/L
PLT (female F1, 100 mg/kg): 357 K/uL
PRO (female F1, 100 mg/kg): 6.27 g/dL
RBC (female F1, 100 mg/kg): 6.93 M/uL
Reti (female F1, 100 mg/kg): 0.61%
T-BIL (female F1, 100 mg/kg): 0.18 mg/dL
TG (female F1, 100 mg/kg): 21.3 mg/dL
WBC (female F1, 100 mg/kg): 7.80 K/uL
A/G (female F1, 400 mg/kg): 0.78
ALB (female F1, 400 mg/kg): 2.53 g/dL
ALP (female F1, 400 mg/kg): 174.7 U/L
ALT (female F1, 400 mg/kg): 39.1 U/L
AST (female F1, 400 mg/kg): 34.5 U/L
BASO (female F1, 400 mg/kg): 0.8%
BUN (female F1, 400 mg/kg): 12.08 mg/dL
CHO (female F1, 400 mg/kg): 175.1 mg/dL
CRE (female F1, 400 mg/kg): 0.85 mg/dL
EOS (female F1, 400 mg/kg): 1.4%
GLU (female F1, 400 mg/kg): 104.39 mg/dL
HCT (female F1, 400 mg/kg): 50.8%
HGB (female F1, 400 mg/kg): 15.7
K+ (female F1, 400 mg/kg): 4.9 mmol/L
LYM (female F1, 400 mg/kg): 31.2%
MCH (female F1, 400 mg/kg): 22.2 pg
MCHC (female F1, 400 mg/kg): 30.9 g/dL
MCV (female F1, 400 mg/kg): 71.7 fL
MONO (female F1, 400 mg/kg): 6.5%
NEU (female F1, 400 mg/kg): 59.6%
Na+ (female F1, 400 mg/kg): 143 mmol/L
PLT (female F1, 400 mg/kg): 378 K/uL
PRO (female F1, 400 mg/kg): 5.76 g/dL
RBC (female F1, 400 mg/kg): 7.08 M/uL
Reti (female F1, 400 mg/kg): 0.95%
T-BIL (female F1, 400 mg/kg): 0.15 mg/dL
TG (female F1, 400 mg/kg): 29.3 mg/dL
WBC (female F1, 400 mg/kg): 10.99 K/uL
Mortality (female dog, 100 mg/kg): 0/1
Clinical Observations Day 1 (female dog, 100 mg/kg, about 7 hours post dose): Soft stool (Oily)
Mortality (female dog, 400 mg/kg): 0/1
Clinical Observations Day 1 (female dog, 400 mg/kg, about 6 hours post dose): Black soft stool
A/G (male M1, 100 mg/kg): 0.58
ALB (male M1, 100 mg/kg): 2.41 g/dL
ALP (male M1, 100 mg/kg): 83.4 U/L
ALT (male M1, 100 mg/kg): 43.1 U/L
AST (male M1, 100 mg/kg): 28 U/L
BASO (male M1, 100 mg/kg): 0.2%
BUN (male M1, 100 mg/kg): 16.83 mg/dL
CHO (male M1, 100 mg/kg): 161 mg/dL
CRE (male M1, 100 mg/kg): 0.7 mg/dL
EOS (male M1, 100 mg/kg): 4.3%
HCT (male M1, 100 mg/kg): 46.8%
HGB (male M1, 100 mg/kg): 15.4
K+ (male M1, 100 mg/kg): 4.8 mmol/L
LYM (male M1, 100 mg/kg): 32.4%
MCH (male M1, 100 mg/kg): 23.0 pg
MCHC (male M1, 100 mg/kg): 33.0 g/dL
MCV (male M1, 100 mg/kg): 69.9 fL
MONO (male M1, 100 mg/kg): 7.1%
NEU (male M1, 100 mg/kg): 55.7%
Na+ (male M1, 100 mg/kg): 144 mmol/L
PLT (male M1, 100 mg/kg): 354 K/uL
RBC (male M1, 100 mg/kg): 6.69 M/uL
Reti (male M1, 100 mg/kg): 0.15%
T-BIL (male M1, 100 mg/kg): 0.1 mg/dL
TG (male M1, 100 mg/kg): 28.9 mg/dL
WBC (male M1, 100 mg/kg): 8.83 K/uL
A/G (male M1, 400 mg/kg): 0.59
ALB (male M1, 400 mg/kg): 2.37 g/dL
ALP (male M1, 400 mg/kg): 94.3 U/L
ALT (male M1, 400 mg/kg): 74.9 U/L
AST (male M1, 400 mg/kg): 27.2 U/L
BASO (male M1, 400 mg/kg): 0.6%
BUN (male M1, 400 mg/kg): 16.17 mg/dL
CHO (male M1, 400 mg/kg): 142 mg/dL
CRE (male M1, 400 mg/kg): 0.79 mg/dL
EOS (male M1, 400 mg/kg): 4.4%
HCT (male M1, 400 mg/kg): 50.5%
HGB (male M1, 400 mg/kg): 15.2
K+ (male M1, 400 mg/kg): 5.1 mmol/L
LYM (male M1, 400 mg/kg): 25.1%
MCH (male M1, 400 mg/kg): 22.1 pg
MCHC (male M1, 400 mg/kg): 30.1 g/dL
MCV (male M1, 400 mg/kg): 73.2 fL
MONO (male M1, 400 mg/kg): 7.9%
NEU (male M1, 400 mg/kg): 61.7%
Na+ (male M1, 400 mg/kg): 146 mmol/L
PLT (male M1, 400 mg/kg): 347 K/uL
RBC (male M1, 400 mg/kg): 6.90 M/uL
Reti (male M1, 400 mg/kg): 0.34%
T-BIL (male M1, 400 mg/kg): 0.12 mg/dL
TG (male M1, 400 mg/kg): 34.4 mg/dL
WBC (male M1, 400 mg/kg): 9.43 K/uL
Mortality (male dog, 100 mg/kg): 0/1
Clinical Observations Day 1 (male dog, 100 mg/kg, about 7 hours post dose): Brown soft stool (Oily)
Mortality (male dog, 400 mg/kg): 0/1
Clinical Observations Day 1 (male dog, 400 mg/kg, about 1 hours post dose): Vomitius (Frothy)
Tolerability (single oral administration at 100 and 400 mg/kg): well tolerated
